Measured values: US12570618B2, “Compound, production method therefor, and pharmaceutical composition” (TOKYO UNIVERSITY OF SCIENCE FOUNDATION, priority 2021, dated 2026)

Experiments:
Assay in all cases: cell proliferation inhibitory activity, WST-8 (Test Example 3)
Format in all cases: cell-based
[1] = test system: H1650 (Lung adenocarcinoma cell line); settings: Homo sapiens, NCI-H1650, 48 h; H1650, 2 days with compound, WST-8, Table 3
Experimental: (§1) Compounds RS8 to RS10 obtained in Synthesis Examples 8 to 10 were examined for cell proliferation inhibitory activity against human cultured cancer cells. The cancer cells used were two human lung adenocarcinoma cell lines and one human lung squamous cell carcinoma cell line. The cancer cells of each type were seeded on a 96-well plate and cultured for 2 days, and cultured for 2 days with addition of serially diluted products of the compounds, and the cell proliferation was then measured by colorimetry with a water-soluble tetrazolium salt (WST-8). Thereafter, 50% cell proliferation inhibitory concentrations (GI50) were calculated from the cell proliferation curves.

[2] = test system: H2228 (Lung adenocarcinoma cell line); settings: Homo sapiens, NCI-H2228, 48 h; H2228, 2 days with compound, WST-8, Table 3
Experimental: as §1

[3] = test system: H226 (Lung squamous cell carcinoma cell line); settings: Homo sapiens, NCI-H226, 48 h; H226, 2 days with compound, WST-8, Table 3
Experimental: as §1

- GI50 [1]: 500 nM
- GI50 [2]: 700 nM
- GI50 [3]: 300 nM
Structure (SMILES): C[C@@H]1[C@@H](O)[C@H](C)C[C@@H]2C=C[C@H](C)[C@H](/C=C/C=C(\Br)C(=O)OCc3ccccn3)[C@@H]12 [RS10, Pyridin-2″-ylmethyl (2Z,4E)-2-bromo-5-((1′S,2′S,4′aR,6′R,7′S,8′S,8′aS)-7′-hydroxy-2′,6′,8′-trimethyl-1′,2′,4′a,5′,6′,7′,8′,8′a-octahydronaphthalen-1′-yl)penta-2,4-dienoate]
